According to ChEMBL document CHEMBL1201862, “PubChem BioAssay data set” (2004):
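Protocol summary: plate cells (96-well), add compound at 5 concentrations, incubate 48 h, interpolate endpoints linearly. GI50 marks 50% less growth.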 Activity calls are given as the source filed them. Cut-off read from the data, not from the text of the source: active = GI50 up to about 1.1 µM and inactive = higher.

Columns and labels:
Assay in all cases: NCI-60 cell line screen, 48 h
SK-OV-3 = test system: SK-OV-3
NCI-H23 = test system: NCI-H23
786-0 = test system: 786-0
OVCAR-4 = test system: OVCAR-4
UO-31 = test system: UO-31
U-251 = test system: U-251
NCI-H460 = test system: NCI-H460
OVCAR-5 = test system: OVCAR-5
SN12C = test system: SN12C
CCRF-CEM = test system: CCRF-CEM
NCI-H226 = test system: NCI-H226
SW-620 = test system: SW-620
COLO 205 = test system: COLO 205
T47D = test system: T47D
RXF 393 = test system: RXF 393
HL-60 = test system: HL-60
SK-MEL-28 = test system: SK-MEL-28
UACC-257 = test system: UACC-257
SF-295 = test system: SF-295
PC-3 = test system: PC-3
A498 = test system: A498
SK-MEL-2 = test system: SK-MEL-2
SK-MEL-5 = test system: SK-MEL-5
A549 = test system: A549
BT-549 = test system: BT-549
NCI/ADR-RES = test system: NCI/ADR-RES
UACC-62 = test system: UACC-62
KM12 = test system: KM12
SR = test system: SR
MDA-MB-435 = test system: MDA-MB-435
MDA-MB-231 = test system: MDA-MB-231
SF-539 = test system: SF-539
CAKI-1 = test system: CAKI-1
LOX IMVI = test system: LOX IMVI
HOP-92 = test system: HOP-92
HCT-116 = test system: HCT-116
MDA-N = test system: MDA-N
SNB-75 = test system: SNB-75
Malme-3M = test system: Malme-3M
IGROV-1 = test system: IGROV-1
TK-10 = test system: TK-10
M14 = test system: M14
HT-29 = test system: HT-29
SNB-19 = test system: SNB-19
Hs-578T = test system: Hs-578T
SF-268 = test system: SF-268
OVCAR-3 = test system: OVCAR-3
MOLT-4 = test system: MOLT-4
RPMI-8226 = test system: RPMI-8226
ACHN = test system: ACHN
K562 = test system: K562
OVCAR-8 = test system: OVCAR-8
HOP-62 = test system: HOP-62
HCT-15 = test system: HCT-15

## Nc1cc2ncnc(Nc3cccc(Br)c3)c2cn1
SK-OV-3
  GI50: 8.18 µM (inactive)
NCI-H23
  GI50: 57 µM (inactive)
786-0
  GI50: 19.5 µM (inactive)
OVCAR-4
  GI50: 39.9 µM (inactive)
UO-31
  GI50: 21.5 µM (inactive)
U-251
  GI50: 18.7 µM (inactive)
NCI-H460
  GI50: 30 µM (inactive)
OVCAR-5
  GI50: 26.7 µM (inactive)
SN12C
  GI50: 17.6 µM (inactive)
CCRF-CEM
  GI50: 96.8 µM (inactive)
NCI-H226
  GI50: 23.8 µM (inactive)
SW-620
  GI50: > 100 µM (inactive)
COLO 205
  GI50: 50.4 µM (inactive)
T47D
  GI50: 23.9 µM (inactive)
RXF 393
  GI50: 41.5 µM (inactive)
HL-60
  GI50: > 100 µM (inactive)
SK-MEL-28
  GI50: 71.9 µM (inactive)
UACC-257
  GI50: 39.9 µM (inactive)
SF-295
  GI50: 26.9 µM (inactive)
PC-3
  GI50: 28.5 µM (inactive)
A498
  GI50: 3.61 µM (inactive)
SK-MEL-2
  GI50: 19.8 µM (inactive)
SK-MEL-5
  GI50: 42.7 µM (inactive)
A549
  GI50: 35.9 µM (inactive)
BT-549
  GI50: > 100 µM (inactive)
NCI/ADR-RES
  GI50: 45.6 µM (inactive)
UACC-62
  GI50: 38.5 µM (inactive)
KM12
  GI50: 22.2 µM (inactive)
SR
  GI50: > 100 µM (inactive)
MDA-MB-435
  GI50: 54.3 µM (inactive)
MDA-MB-231
  GI50: 45.2 µM (inactive)
SF-539
  GI50: 21.9 µM (inactive)
CAKI-1
  GI50: 32.4 µM (inactive)
LOX IMVI
  GI50: 38 µM (inactive)
HOP-92
  GI50: 26.4 µM (inactive)
HCT-116
  GI50: 49.5 µM (inactive)
MDA-N
  GI50: 31 µM (inactive)
SNB-75
  GI50: 33.7 µM (inactive)
Malme-3M
  GI50: > 100 µM (inactive)
IGROV-1
  GI50: > 10 µM (inactive)
TK-10
  GI50: 2.52 µM (inactive)
M14
  GI50: 38 µM (inactive)
HT-29
  GI50: 31.4 µM (inactive)
SNB-19
  GI50: 67.5 µM (inactive)
Hs-578T
  GI50: 33.7 µM (inactive)
SF-268
  GI50: 58.2 µM (inactive)
OVCAR-3
  GI50: 15.8 µM (inactive)
MOLT-4
  GI50: > 100 µM (inactive)
RPMI-8226
  GI50: 52.5 µM (inactive)
ACHN
  GI50: 3.44 µM (inactive)
K562
  GI50: > 100 µM (inactive)
OVCAR-8
  GI50: 36.1 µM (inactive)
HOP-62
  GI50: 29.4 µM (inactive)
HCT-15
  GI50: 12.3 µM
